In patent US20240279233A1, “MACROCYCLIC TAK1 INHIBITORS” (Aqilion AB, priority 2021, published 2024):
Where two headings read alike, the source gives them in different places.

Target: human recombinant TAK1-TAB1 Kinase (TAK1 (1-303) and TAB1 (437-end)) (Homo sapiens (Human), UniProt O43318)
Test: TAK1 biochemical ADP-Glo kinase assay
Details: MBP substrate
How it was run: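 Inhibition of human recombinant TAK1-TAB1 kinase was measured with a Promega ADP-Glo luminescence assay in 384-well plates. Compounds in 5% DMSO were pre-incubated 10 min with 2 μl TAK1-TAB1 (7.5 ng/μl) in buffer of Tris pH 7.5, MgCl2, DTT and BSA. MBP substrate and ATP were then added for 1 hour at room temperature. ADP-Glo reagent and kinase detection substrate followed, luminescence was read on an Envision, and IC50 came from non-linear regression.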

[1] = 1 mM ATP, read-out: TAK1 Mean IC50 (nM) @ 1 mM ATP
[2] = 10 μM ATP, read-out: TAK1 Mean IC50 (nM) @ 10 μM ATP

human recombinant TAK1-TAB1 Kinase (TAK1 (1-303) and TAB1 (437-end)), sequence (O43318 other isoform, or with tags, fused parts or gaps): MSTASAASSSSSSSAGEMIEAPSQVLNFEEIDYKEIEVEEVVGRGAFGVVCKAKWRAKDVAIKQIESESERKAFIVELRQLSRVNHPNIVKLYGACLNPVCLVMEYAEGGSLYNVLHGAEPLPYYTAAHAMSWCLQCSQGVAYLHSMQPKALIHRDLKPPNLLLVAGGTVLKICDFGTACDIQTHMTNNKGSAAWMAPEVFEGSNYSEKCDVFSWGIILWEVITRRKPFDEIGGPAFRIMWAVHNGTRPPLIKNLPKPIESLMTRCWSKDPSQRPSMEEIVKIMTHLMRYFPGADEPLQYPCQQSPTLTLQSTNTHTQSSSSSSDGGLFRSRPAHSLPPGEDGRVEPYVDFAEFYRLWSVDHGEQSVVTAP

| Compound | IC50 [1] | IC50 [2] |
| --- | --- | --- |
| C[C@H]1CCCCNC(=O)c2cccc(c2)C(=O)/N=C2\Nc3cccc(C(=O)N4CC[C@@](C)(O)C4)c3N21 [Example 106, (S,E)-1^7-((R)-3-hydroxy-3-methylpyrrolidine-1-carbonyl)-11-methyl-1^2,1^3-dihydro-1^1H-2,6-diaza-1(2,1)-benzo[d]imidazola-4(1,3)-benzenacycloundecaphane-3,5-dione] | 6 nM |  |
| C[C@H]1CCCCNC(=O)c2cccc(c2)C(=O)Nc2nc3ccc(Cl)c(C(=O)N(C)C)c3n21 (single isomer, unassigned) [Example 53] |  | 258 nM |
| CCC1CCCCNC(=O)c2cccc(c2)C(=O)Nc2nc3cccc(C(=O)N(C)C)c3n21 (single isomer, unassigned) [Example 68, (E)-11-ethyl-N,N-dimethyl-3,5-dioxo-1^2,1^3-dihydro-1^1H-2,6-diaza-1(2,1)-benzo[d]imidazola-4(1,3)-benzenacycloundecaphane-1^7-carboxamide] |  | 4 nM |
| Cc1noc(-c2cccc3c2N2/C(=N/C(=O)c4cccc(c4)C(=O)NCCCC[C@@H]2C)N3)n1 [Example 147, (S,E)-11-methyl-1^7-(3-methyl-1,2,4-oxadiazol-5-yl)-1^2,1^3-dihydro-1^1H-2,6-diaza-1(2,1)-benzo[d]imidazola-4(1,3)-benzenacycloundecaphane-3,5-dione] |  | 5 nM |
| C[C@H]1CCCCNC(=O)c2cccc(c2)C(=O)/N=C2\Nc3cccc(C(=O)N4CC(C)(O)C4)c3N21 [Example 95, (S,E)-1^7-(3-hydroxy-3-methylazetidine-1-carbonyl)-11-methyl-1^2,1^3-dihydro-1^1H-2,6-diaza-1(2,1)-benzo[d]imidazola-4(1,3)-benzenacycloundecaphane-3,5-dione] |  | 6 nM |
| CC1CCCCNC(=O)c2cccc(c2)C(=O)/N=C2\Nc3cccc(-c4ncn(C(F)F)n4)c3N21 (single isomer, unassigned) [Example 137, (E)-1^7-(1-(difluoromethyl)-1H-1,2,4-triazol-3-yl)-11-methyl-1^2,1^3-dihydro-1^1H-2,6-diaza-1(2,1)-benzo[d]imidazola-4(1,3)-benzenacycloundecaphane-3,5-dione] |  | 9 nM |
| CCC1CCCCNC(=O)c2cccc(c2)C(=O)Nc2nc3cccc(C(=O)N(C)C)c3n21 (single isomer, unassigned) [Example 67, (E)-11-ethyl-N,N-dimethyl-3,5-dioxo-1^2,1^3-dihydro-1^1H-2,6-diaza-1(2,1)-benzo[d]imidazola-4(1,3)-benzenacycloundecaphane-1^7-carboxamide] |  | 5 nM |
| C[C@H]1CCCCNC(=O)c2cccc(c2)C(=O)/N=C2\Nc3cccc(C(=O)N4CCC5(CCO5)C4)c3N21 (single isomer, unassigned) [Example 120] | 14 nM | 5 nM |
| C[C@H]1CCCCNC(=O)c2cccc(c2)C(=O)/N=C2\Nc3cc(CN4CCOCC4)cc(C(=O)N(C)C)c3N21 [Example 125, (S,E)-N,N,11-trimethyl-1^5-(morpholinomethyl)-3,5-dioxo-1^2,1^3-dihydro-1^1H-2,6-diaza-1(2,1)-benzo[d]imidazola-4(1,3)-benzenacycloundecaphane-1^7-carboxamide] | 7 nM | 5 nM |
| CC1CCCCNC(=O)c2cccc(c2)C(=O)/N=C2\Nc3cccc(N4CCN(C5COC5)C4=O)c3N21 (single isomer, unassigned) [Example 144, (E)-11-methyl-1^7-(3-(oxetan-3-yl)-2-oxoimidazolidin-1-yl)-1^2,1^3-dihydro-1^1H-2,6-diaza-1(2,1)-benzo[d]imidazola-4(1,3)-benzenacycloundecaphane-3,5-dione] | 10 nM |  |
| CC1CCCCNC(=O)c2cccc(c2)C(=O)/N=C2\Nc3cccc(C(=O)N(C)CCF)c3N21 (single isomer, unassigned) [Example 71, (E)-N-(2-fluoroethyl)-N,11-dimethyl-3,5-dioxo-1^2,1^3-dihydro-1^1H-2,6-diaza-1(2,1)-benzo[d]imidazola-4(1,3)-benzenacycloundecaphane-1^7-carboxamide] | 27 nM | 6 nM |
| C[C@H]1CCCCNC(=O)c2cccc(c2)C(=O)/N=C2\Nc3cccc(C(=O)N4CC5(COC5)C4)c3N21 [Example 114, (S,E)-11-methyl-1^7-(2-oxa-6-azaspiro[3.3]heptane-6-carbonyl)-1^2,1^3-dihydro-1^1H-2,6-diaza-1(2,1)-benzo[d]imidazola-4(1,3)-benzenacycloundecaphane-3,5-dione] | 10 nM |  |
| COC(=O)CN(C)C(=O)c1cccc2c1N1/C(=N/C(=O)c3cccc(c3)C(=O)NCCCCC1C)N2 (stereo not drawn) [Example 38, methyl (E)-N-methyl-N-(11-methyl-3,5-dioxo-1^2,1^3-dihydro-1^1H-2,6-diaza-1(2,1)-benzo[d]imidazola-4(1,3)-benzenacycloundecaphane-1^7-carbonyl)glycinate] |  | 4 nM |
| C[C@H]1CCCCNC(=O)c2cccc(c2)C(=O)/N=C2\Nc3ccnc(C(=O)N(C)C)c3N21 [Example 128, (S,E)-N,N,11-trimethyl-3,5-dioxo-1^2,1^3-dihydro-1^1H-2,6-diaza-1(2,3)-imidazo[4,5-c]pyridina-4(1,3)-benzenacycloundecaphane-1^4-carboxamide] |  | 7 nM |
| CC1CCCCNC(=O)c2cccc(c2)C(=O)/N=C2\Nc3cccc(C4CCCNC4=O)c3N21 (single isomer, unassigned) [Example 59, (E)-11-methyl-1^7-(2-oxopiperidin-3-yl)-1^2,1^3-dihydro-1^1H-2,6-diaza-1(2,1)-benzo[d]imidazola-4(1,3)-benzenacycloundecaphane-3,5-dione] |  | 4 nM |
| C[C@H]1CCCCNC(=O)c2cccc(c2)C(=O)/N=C2\Nc3cccc(C(=O)N4CC(OC(F)(F)F)C4)c3N21 [Example 110, (S,E)-11-methyl-1^7-(3-(trifluoromethoxy)azetidine-1-carbonyl)-1^2,1^3-dihydro-1^1H-2,6-diaza-1(2,1)-benzo[d]imidazola-4(1,3)-benzenacycloundecaphane-3,5-dione] | 26 nM |  |
| C[C@H]1CCCCNC(=O)c2cccc(c2)C(=O)/N=C2\Nc3ccnc(N4CCC(F)C4=O)c3N21 (single isomer, unassigned) [Example 127] | 18 nM | 5 nM |
| CC1CCCCNC(=O)c2cccc(c2)C(=O)/N=C2\Nc3cccc(-c4cc[nH]c(=O)c4)c3N21 (single isomer, unassigned) [Example 63, (E)-11-methyl-1^7-(2-oxo-1,2-dihydropyridin-4-yl)-1^2,1^3-dihydro-1^1H-2,6-diaza-1(2,1)-benzo[d]imidazola-4(1,3)-benzenacycloundecaphane-3,5-dione] |  | 8 nM |
| C[C@@H]1CCCCNC(=O)c2cccc(c2)C(=O)/N=C2\Nc3cccc(C(=O)N4CC(C)(O)C4)c3N21 [Example 94, (R,E)-1^7-(3-hydroxy-3-methylazetidine-1-carbonyl)-11-methyl-1^2,1^3-dihydro-1^1H-2,6-diaza-1(2,1)-benzo[d]imidazola-4(1,3)-benzenacycloundecaphane-3,5-dione] |  | 5 nM |
| C[C@H]1CCCCNC(=O)c2cccc(c2)C(=O)/N=C2\Nc3ccnc(N4CCC(F)C4=O)c3N21 (single isomer, unassigned) [Example 126] | 12 nM | 4 nM |
| CC1CCCCNC(=O)c2cccc(c2)C(=O)/N=C2\Nc3cccc(C(=O)N4CC5(CCO5)C4)c3N21 (single isomer, unassigned) [Example 80, (E)-11-methyl-1^7-(1-oxa-6-azaspiro[3.3]heptane-6-carbonyl)-1^2,1^3-dihydro-1^1H-2,6-diaza-1(2,1)-benzo[d]imidazola-4(1,3)-benzenacycloundecaphane-3,5-dione] |  | 5 nM |
| CC1CCCCNC(=O)c2cccc(c2)C(=O)/N=C2\Nc3cccc(C4CCCNC4=O)c3N21 (single isomer, unassigned) [Example 61, (E)-11-methyl-1^7-(2-oxopiperidin-3-yl)-1^2,1^3-dihydro-1^1H-2,6-diaza-1(2,1)-benzo[d]imidazola-4(1,3)-benzenacycloundecaphane-3,5-dione] |  | 4 nM |
| Cc1nnc(-c2cccc3c2N2/C(=N/C(=O)c4cccc(c4)C(=O)NCCCC[C@@H]2C)N3)n1C(C)C [Example 134, (S,E)-1^7-(4-isopropyl-5-methyl-4H-1,2,4-triazol-3-yl)-11-methyl-1^2,1^3-dihydro-1^1H-2,6-diaza-1(2,1)-benzo[d]imidazola-4(1,3)-benzenacycloundecaphane-3,5-dione] | 12 nM | 10 nM |
| C[C@@H]1CCCCNC(=O)c2cccc(c2)C(=O)Nc2nc3cccc(-c4ncnn4C)c3n21 [Example 85, (R,E)-11-methyl-1^7-(1-methyl-1H-1,2,4-triazol-5-yl)-1^1H-2,6-diaza-1(2,1)-benzo[d]imidazola-4(1,3)-benzenacycloundecaphane-3,5-dione] |  | 3 nM |
| CC1CCCCNC(=O)c2cccc(c2)C(=O)Nc2nc3cccc(-c4nccn4C(F)F)c3n21 (stereo not drawn) [Example 90, (E)-1^7-(1-(difluoromethyl)-1H-imidazol-2-yl)-11-methyl-1^2,1^3-dihydro-1^1H-2,6-diaza-1(2,1)-benzo[d]imidazola-4(1,3)-benzenacycloundecaphane-3,5-dione] |  | 6 nM |
| CC1CCCCNC(=O)c2cccc(c2)C(=O)/N=C2\Nc3cccc(C(=O)N4CCOC[C@H]4C)c3N21 (single isomer, unassigned) [Example 75] |  | 11 nM |
| CC1CCCCNC(=O)c2cccc(c2)C(=O)/N=C2\Nc3cccc(C(=O)N(C)C4CCC4)c3N21 (stereo not drawn) [Example 39, (E)-N-cyclobutyl-N,11-dimethyl-3,5-dioxo-1^2,1^3-dihydro-1^1H-2,6-diaza-1(2,1)-benzo[d]imidazola-4(1,3)-benzenacycloundecaphane-1^7-carboxamide] |  | 6 nM |
